Entries after “also recorded” stand apart in the source; their conditions may differ.
How the values were obtained:
spontaneous tumors = test: Tumor response assessment (RECIST); assay type: in vivo, dogs
Protocol: Tumor assessments were completed prior to study entry, and days 8, 15, 22, and 29. For dogs that continued beyond the planned 4 doses of STA-1474, response assessments were performed every 3–6 weeks thereafter, or at the time of suspected tumor progression. Responses were assessed by the investigator according to pre-defined protocol criteria. The response in dogs with assessable disease was performed by clinical examination, radiography, ultrasonography, or CT scans. Many lesions were not amenable for quantitative radiographic imaging, but were followed either by serial clinical examination (superficial lesions; palpable lymph nodes) or by ultrasonography (abdominal lymph nodes). Thoracic lesions were assessed by thoracic radiography and nasal lesions by CT scan.
The response in dogs with measurable disease was judged by the investigator on the basis of RECIST criteria. A complete response (CR) was defined as disappearance of all disease on two measurements separated by a minimum period of 3 weeks. A partial response (PR) was defined as greater than 30% reduction in the sum of the longest diameter of the target lesions documented by two assessments separated by at least 3 weeks. An increase of >20% in the size of all measurable tumor areas as measured by the sum of longest diameters of the target lesions taken as reference the smallest sum since initiation of therapy, or the appearance of any new lesion(s) would qualify as progressive disease (PD). A mixed response (MR) was defined as PR in some target lesions with PD in other target lesions. Stable disease (SD) was defined by the absence of criteria for either a response or progression. Dogs who had no evidence of tumor progression and who had not experienced any unacceptable toxicity were eligible for extended treatment cycles. Dose escalation in an individual dog was permitted if the dog was tolerating therapy.

OSA xenografts = conditions: cited from earlier work
[1] = Toxicity assessment (VCOG-CTCAE grades) in Phase I trial; assay type: in vivo, dogs
Protocol: This study was a Phase I dose escalating, open label assessment of the safety and pharmacokinetics of STA-1474 in client owned dogs with spontaneous malignancies. Dogs were administered STA-1474 on one of three dosing regimens and were evaluated weekly or twice per week dependent on the regimen used. Assessment of clinical toxicities and tumor response was performed at each visit. Dogs were evaluated for hematologic and biochemical toxicities every 7 days with routine bloodwork. The initial dose of STA-1474 was set at 7 mg/kg based on previous data from normal laboratory dogs (data not shown) and dose escalation was set at 2.5 mg/kg increments in cohorts of 3 until dose limiting toxicity (DLT) was identified. The DLT was considered to be any grade 3 or 4 hematologic or non-hematologic toxicity based on the established VCOG-CTAE criteria. […] Disease progression or signs and symptoms definitely related to disease were not considered adverse events (AEs).
Each patient underwent a baseline complete history, physical examination, and predose laboratory assessment that included a complete blood count (CBC), serum biochemistry profile, and urinalysis. Patients were assessed for adverse events on days 8, 15, 22, and 29, at which time a complete blood count with differential and clinical chemistry were performed. Urinalysis was performed at baseline and repeated only if indicated. Stipulations regarding minimal hematological requirements to continue dosing were included in the protocol: hematocrit >25%, neutrophils >[…], platelets >[…]. In addition, liver transaminases were required to be <4X upper limit of normal with a normal total bilirubin and serum creatinine to continue STA-1474 therapy.

HSP90 = test: Evaluation of tumor biopsies for HSP90 expression (Western blot); assay type: in vivo, dogs; conditions: tumor samples, 24 hrs following treatment, 5 mg/kg over 1 hour
Protocol: Frozen tumor samples were processed as described above, then resuspended in 100–150 uL of lysis buffer consisting of 20 mM Tris-HCl pH 8.0, 137 mM NaCl, 10% glycerol, 1% IGEPAL CA-630, 10 mM ethylenediaminetetraacetic acid (EDTA), 1 mg/mL aprotinin, 1 mg/mL leupeptin, 1 mg/mL pepstatin A, 1 mM phenylmethysulphonyl fluoride, 1 mM sodium orthovanadate, 10 mM sodium fluoride (all from Sigma, St. Louis, MO). Sample were rocked at 4°C for 1 hour, and then centrifuged for 15 minutes at 13,000 RCF. A Bradford protein assay was performed on the lysates using BioRad Reagent (Hercules, CA). 60–100 µg of protein were separated by SDS-page, and transferred to PVDF membranes. The membranes were incubated overnight with anti-HSP90 antibodies (Cell Signaling Technology, Danvers, MA), washed, then incubated with horseradish peroxidase linked secondary antibody. Membranes were washed again, then exposed to Super Signal West Dura Extended Duration Substrate (Pierce, Rockford, IL) Membranes were stripped, washed, and reprobed for β-Actin (Santa Cruz Biotechnology, Santa Cruz, CA) using the SNAP i.d. apparatus (Millipore, Billerica, MA) according to manufacture's instructions.

[2] = system: canine MCT and OSA cell lines; conditions: cited from earlier work; for activity compared with 17-AAG: OSA and MCT cell lines
HSP70 = test: Evaluation of HSP70 expression in tumor biopsies and PBMCs (ELISA, Western blot); assay type: in vivo, dogs
[3] = Ganetespib pharmacokinetics in plasma after STA-1474 infusion (LC-MS/MS); assay type: in vivo, dogs; conditions: for half-life / AUC(0-t) / Cmax / Tmax: iv, STA-9090 in plasma, mean, day 1
Protocol: Plasma samples were collected on day 1 and day 22 of therapy at the specified intervals: before and after dosing at 30, 60, 90, 120, 180, 300 (5 hr), 540 (9 hr), and 1440 (24 hr) minutes relative to the start of dosing. On day 8, day 15, and day 29, plasma was collected before dosing only. Approximately 1 ml of blood was drawn from an indwelling catheter, placed in a sodium heparin vacuum glass tube, and placed on ice until centrifugation. Blood samples were centrifuged at 3300 rpm for 10 minutes, within 30 minutes of collection. Plasma was transferred by pipette into two cryovials and stored at −80°C until analysis.
Plasma concentrations of ganetespib were determined using a qualified liquid chromatography tandem mass spectrometry (LC-MS/MS) method. Samples were analyzed on an HPLC system consisting of an Agilent HP1100 separation module (Santa Clara, CA) coupled to an AB SCIEX API400 MS/MS detector (Foster City, CA). Stable isotope-labeled ganetespib was used as an internal standard. Sample extraction was performed by a liquid-liquid extraction method with 25 µL plasma samples and 800 µL methyl tertiary butyl ether. The organic phase of samples was evaporated to dryness under nitrogen and reconstituted with water/acetonitrile solution for injection. Chromatographic separation was achieved on a reverse-phase analytical column (4 µm particle, 50×2.0 mm i.d.) with gradient elution of water/0.1% formic acid and acetonitrile/0.1% formic acid at a flow rate of 500 µL/min. The total run time was 4 min. Quantitation was achieved by MS/MS detection in positive ion mode by multiple reaction monitoring. The lower limit of quantitation (LLOQ) was 1.00 ng/mL, with a concentration range from 1.00 to 1000 ng/mL.
The pharmacokinetic parameters for ganetespib were determined from the plasma concentration data using the Noncompartmental Analysis module in WinNonlin, version 5.2 (Pharsight Corporation, St.Louis, MO). The predose samples that measured below the LLOQ (BQL) were treated as zero for the calculations. Maximum concentration (Cmax) and time of maximum concentration (Tmax) were directly determined from the observed concentration-time profiles. The area under the plasma concentration-time curve (AUC) was estimated by the linear trapezoidal rule. The apparent half-life (t1/2) was calculated as t1/2 = 0.693/λ where λ was the elimination rate constant estimated from the regression of the terminal slope of the concentration versus time curve.

human cancer cell lines = system: human cancer cell lines; parameters: method as in earlier work; conditions: in vitro; 15 and unpublished data, Synta Pharmaceuticals Corp.; cited from earlier work
MCT xenograft = conditions: murine MCT xenograft model; cited from earlier work
[4] = 1 hr/2x week, 5.0 mg/kg, 7 dogs
[5] = dog, plasma, 5 mg/kg, STA-1474 5 mg/kg, 1 h infusion, twice weekly
[6] = dog, plasma, 9.5 mg/kg, STA-1474 9.5 mg/kg, 1 h infusion, once weekly
[7] = dog, plasma, 9.5 mg/kg, STA-1474 9.5 mg/kg, 8 h infusion, once weekly

SMILES: CC(C)c1cc(-c2nnc(O)n2-c2ccc3c(ccn3C)c2)c(O)cc1OP(=O)(O)O [STA-1474]
- dogs with partial responses (spontaneous tumors; 5 mg/kg over one hour twice per week, 7 dogs, both MCTs): 2
- objective responses (spontaneous tumors; 1 hr once per week dosing regimen, n = 12, exception one dog with oral malignant melanoma after extravasation): no objective responses
- biologic activity rate (spontaneous tumors; 8 hour infusion group, 9.5 mg/kg once weekly, 2PR, 1 MR, 2 SD of 6): 83%
- response rate (measurable objective responses) (spontaneous tumors; all dogs, 6/25): 24%
- overall biological activity (objective responses plus stable disease >10 weeks) (spontaneous tumors; all dogs, 9/25): 36%
- duration of mixed response (spontaneous tumors; metastatic MCT, 8 hour infusion 9.5 mg/kg): 16 weeks
- duration of partial response (spontaneous tumors; metastatic OSA, 8 hour infusion 9.5 mg/kg): 20 weeks
- duration of partial response (spontaneous tumors; metastatic thyroid carcinoma, 8 hour infusion 9.5 mg/kg): 36 weeks
- duration of stable disease (spontaneous tumors; metastatic thyroid carcinoma, switched from 1 hr to 8 hr infusion): 40 weeks
- duration of continued partial response (spontaneous tumors; oral malignant melanoma with extravasation event, on 8 hour infusion protocol): 12 weeks
- duration of stable disease (spontaneous tumors; two dogs, both metastatic OSA, 8 hour infusion 9.5 mg/kg): 12 weeks
- tumor effect (OSA xenografts): induced tumor regression
- Anorexia grade 1 (count) [1, 4]: 3
- Anorexia grade 2 (count) [1, 4]: 5
- Diarrhea grade 1 (count) [1, 4]: 5
- Diarrhea grade 2 (count) [1, 4]: 1
- Diarrhea grade 3 (count) [1, 4]: 1
- Lethargy grade 1 (count) [1, 4]: 4
- Lethargy grade 2 (count) [1, 4]: 2
- Anorexia grade 2 (count) ([1]; 1 hr/week, 7.0 mg/kg, 4 dogs): 2
- Diarrhea grade 1 (count) ([1]; 1 hr/week, 7.0 mg/kg, 4 dogs): 2
- Diarrhea grade 2 (count) ([1]; 1 hr/week, 7.0 mg/kg, 4 dogs): 3
- Lethargy grade 1 (count) ([1]; 1 hr/week, 7.0 mg/kg, 4 dogs): 2
- Vomiting grade 1 (count) ([1]; 1 hr/week, 7.0 mg/kg, 4 dogs): 3
- Diarrhea grade 1 (count) ([1]; 1 hr/week, 9.5 mg/kg, 5 dogs): 1
- Diarrhea grade 3 (count) ([1]; 1 hr/week, 9.5 mg/kg, 5 dogs): 1
- Lethargy grade 2 (count) ([1]; 1 hr/week, 9.5 mg/kg, 5 dogs): 1
- Lethargy grade 3 (count) ([1]; 1 hr/week, 9.5 mg/kg, 5 dogs): 1
- Vomiting grade 2 (count) ([1]; 1 hr/week, 9.5 mg/kg, 5 dogs): 2
- Anorexia grade 2 (count) ([1]; 1 hr/week, 10.25 mg/kg, 3 dogs): 3
- Diarrhea grade 2 (count) ([1]; 1 hr/week, 10.25 mg/kg, 3 dogs): 3
- Lethargy grade 2 (count) ([1]; 1 hr/week, 10.25 mg/kg, 3 dogs): 3
- Vomiting grade 2 (count) ([1]; 1 hr/week, 10.25 mg/kg, 3 dogs): 1
- Anorexia grade 1 (count) ([1]; 8 hr/week, 9.5 mg/kg, 6 dogs): 5
- Anorexia grade 2 (count) ([1]; 8 hr/week, 9.5 mg/kg, 6 dogs): 4
- Diarrhea grade 1 (count) ([1]; 8 hr/week, 9.5 mg/kg, 6 dogs): 4
- Diarrhea grade 2 (count) ([1]; 8 hr/week, 9.5 mg/kg, 6 dogs): 4
- Lethargy grade 1 (count) ([1]; 8 hr/week, 9.5 mg/kg, 6 dogs): 2
- Vomiting grade 2 (count) ([1]; 8 hr/week, 9.5 mg/kg, 6 dogs): 3
- maximum tolerated weekly dose ([1]; administered weekly over 1 or 8 hours, intravenous): 9.5 mg/kg
- hematologic or biochemical toxicities ([1]; any doses or regimens): No drug-related hematologic or biochemical toxicities; also recorded: no evidence of hematologic toxicity
- HSP90 expression levels (Western blot) (HSP90): did not appear to change substantially
- activity compared with 17-AAG [2]: superior activity
- HSP70 expression (Western blot) (HSP70; PBMCs, 24 hours after 9.5 mg/kg over 8 hours): small increases in HSP70 expression
- time to upregulation of HSP70 protein expression (HSP70; tumor specimens and PBMCs, following drug administration): ≤ 7 h

SMILES: CC(C)c1cc(-c2n[nH]c(=O)n2-c2ccc3c(ccn3C)c2)c(O)cc1O [ganetespib]
- sustained blood levels ([3]; dog with oral melanoma, extravasation (mostly subcutaneous) of STA-1474, first dosing cohort): 200 to 600 ng/mL
- duration of sustained blood levels ([3]; dog with oral melanoma, extravasation of STA-1474, levels between 200–600 ng/ml): 8 to 10 h
- half-life ([3]; dog, STA-1474 5 mg/kg, 1 h infusion, twice weekly): 6.1 h
- half-life ([3]; dog, STA-1474 9.5 mg/kg, 1 h infusion, once weekly): 5.6 h
- AUC ([3]; dog, plasma, intravenous, range over the three dosing regimens of STA-1474): 5010 to 5700 ng·h/mL
- AUC(0-t) [3, 5]: 5010 ng·h/mL
- Cmax [3, 5]: 3420 ng/mL
- Tmax [3, 5]: 1.1 h
- AUC(0-t) [3, 6]: 5700 ng·h/mL
- Cmax [3, 6]: 3980 ng/mL
- Tmax [3, 6]: 0.7 h
- AUC(0-t) [3, 7]: 5600 ng·h/mL
- Cmax [3, 7]: 802 ng/mL
- Tmax [3, 7]: 5.7 h
- concentrations killing cancer cell lines (human cancer cell lines): low nanomolar concentrations
- tumor growth (MCT xenograft): inhibited tumor growth
- activity compared with 17-AAG [2]: superior activity
- concentrations for biologic effects, lower than those for 17-AAG ([2]; canine MCT and OSA cell lines): at least 1 log

Source: article PMC3207826, “Phase I Evaluation of STA-1474, a Prodrug of the Novel HSP90 Inhibitor Ganetespib, in Dogs with Spontaneous Cancer” (PLoS ONE, 2011)
